{"source": "patent US20240108662A1", "about": "“ENGINEERED CELLS FUNCTIONALIZED WITH IMMUNE CHECKPOINT MOLECULES AND USES THEREOF” (The University of North Carolina at Chapel Hill, priority 2020, published 2024)", "assay_type_in_all_cases": "cell-based, mouse", "key": {"[1]": {"test_system": "2D2 cells (MOG-specific CD4+ T cells)", "experiment": "PD-1 and CTLA-4 expressions of myelin-specific 2D2 cells after co-culture (FACS)", "settings": "E:T 10:1, 48 h", "protocol": "Myelin-specific CD4 T cell in vitro activation: Mouse IFN-γ and mouse IL-17A secreted from the activated myelin-specific 2D2 cells were quantified by ELISA assays as previously reported^56. […] The cell culture media (contain mainly the 2D2 cells) were preserved. 2D2 cells were collected from the cultured media via centrifugation at 1,000 g for 10 min. The moue IFN-γ and mouse IL-17A concentrations in the supernatants were quantified via mouse IFN-γ ELISA kit (ab100689; Abcam, Cambridge, MA) and mouse IL-17A ELISA kit (ab199081; Abcam, Cambridge, MA), according to manufacturer's instructions. […] MIH4, catalog number: 53-9969-42, Invitrogen), PE-labeled anti-mouse CTLA-4 antibody (clone: […] Stained cells were fixed with 4% paraformaldehyde (4% PFA; Sigma) and kept in dark at 4° C. before further FACS study."}, "[2]": {"test_system": "MSCs", "experiment": "MTS viability assay, MSCs", "protocol": "(§1) In vitro toxicity of Ac4ManNAz and LEF, and viabilities of functionalized MSCs and MOLs: In vitro toxicities of Ac4ManNAz and LEF against MSCs and MOLs, and the viabilities of functionalized MSCs and MOLs were quantified by MTS assay. Briefly, treated/functionalized cells were cultured in complete media for 4 days. The phenol-red media was replaced by phenol red-free DMEM (supplemented with 10% FBS) before quantifying the viabilities via MTS assay according to the manufacturer's protocol. The MSCs were seeded at a density of 2×10^4 cells per well and the MOLs were seeded at a density of 1×10^4 cells per well in a 96-well plate."}, "[3]": {"test_system": "MOLs", "experiment": "MTS viability assay, MOLs", "protocol": "as §1"}}}
{"smiles": "Cc1oncc1C(=O)Nc1ccc(C(F)(F)F)cc1", "note": "[small-molecule LEF, Leflunomide]", "values": [{"measurement": "upregulation of PD-1 and CTLA-4 in co-cultured 2D2 cells", "setting": "[1]", "value": "increased the expression of CTLA-4 in the co-cultured 2D2 cells"}, {"measurement": "in vitro toxicity against MSCs", "setting": "[2]", "value": "moderate in vitro toxicity"}, {"measurement": "in vitro toxicity against MOLs", "setting": "[3]", "value": "insignificant toxicity"}]}
